The values that follow come from US7390910B2, “Compounds for treating tumors” (priority 2003, dated 2008).

By IC50 is commonly meant the midpoint of a concentration-inhibition curve. A low value points to greater potency in that assay. As a reminder, the inhibition is the percentage by which the read-out fell short of the control.

Where a SMILES comes first, the peptide text is derived from it. [ ]: non-standard residue; d: D form. NMePhe(β,β-Me2) = CN[C@H](C(=O)O)C(C)(C)c1ccccc1; Tle = CC(C)(C)[C@H](N)C(=O)O; NMeV = CN[C@H](C(=O)O)C(C)C

The subject of assay [1] is KB cells. The assay can be described thus: cells. Format: cell-based. The note with it: for IC50: 3 days, SRB; for inhibition at 3 µM: 3000 nM. As for the experimental part: (§1) Cell Survival Assay: Standard Pharmacological Test Procedure. […] Compounds are incubated with cells for 3 days.
For assay [2], the system named is KB85. The assay can be described thus: cells. The note with it: for IC50: 3 days, SRB; for inhibition at 3 µM: 3000 nM. Format: cell-based. As for the experimental part: as §1
Assay [3] has as its system KBV1. Put plainly: cells. Format: cell-based. The settings on record: for IC50: 3 days, SRB; for inhibition at 3 µM: KB-V1, 3000 nM. The protocol:
as §1

The test system of assay [4] is bovine microtubule-associated protein (MAP)-rich tubulin. Format: biochemical. The note with it: 0.3 uM. The protocol:
Tubulin Polymerization Assays. For in vitro tubulin polymerization assays, bovine microtubule-associated protein (MAP)-rich tubulin, PEM buffer [80 mM Na-PIPES (pH 6.9), 1 mM MgCl2, and 1 mM EGTA], and GTP are purchased from Cytoskeleton (Denver, Colo.). MAP-rich tubulin (final concentration 1.5 mg/ml) is dissolved in cold PEM buffer containing 1 mM GTP (GPEM) and centrifuged at 12,000×g for 10 min at 4° C. The tubulin solution (100 μl/well) is added rapidly to wells of a low-volume, 96-well plate already containing duplicate aliquots (10 μl) of test compounds in GPEM. […] Control wells contained the same final concentration of DMSO (0.3%). After initiation of the reaction, absorbance at 340 nm is measured every minute for 60 min at 24° C. using a SpectraMax Plus plate reader (Molecular Devices, Sunnyvale, Calif.).

As to `CN[C@H](C(=O)N[C@H](C(=O)N(C)[C@H](/C=C(\C)C(=O)N1CCN(Cc2ccccc2)CC1)C(C)C)C(C)(C)C)C(C)(C)c1cc(C)cc(C)c1` [Example 14, N,β,β,3,5-Pentamethyl-L-phenylalanyl-N^1-[(1S,2E)-4-(4-benzylpiperazin-1-yl)-1-isopropyl-3-methyl-4-oxobut-2-enyl]-N^1,3-dimethyl-L-valinamide], the IC50 in assay [1] (Homo sapiens, KB, 72 h) was determined as 45 nM; in assay [2] (72 h), 135 nM; in assay [3] (Homo sapiens, KB-V1, 72 h), 1650 nM. The “Tubulin Polym. % inhibition at 0.3 uM” value in assay [4] is reported as 51(5) %.

Consider `C/C(=C\[C@H](C(C)C)N(C)C(=O)[C@@H](NC(=O)[C@@H]1CCCN1C)C(C)(C)C)C(=O)O` [Example 62, 1-methyl-L-prolyl-N^1-[(1S,2E)-3-carboxy-1-isopropylbut-2-enyl]-N^1,3-dimethyl-L-valinamide], for which the IC50 in assay [1] (Homo sapiens, KB, 72 h) was 2950 nM. Further, the inhibition at 3 µM is 26% in assay [2] and 10% in assay [3] (Homo sapiens). Further, the “Tubulin Polym. % inhibition at 0.3 uM” value in assay [4] is on record as 65(2) %.

For the compound `CN[C@H](C(=O)N[C@H](C(=O)N(C)[C@H](/C=C(\C)C(=O)N1CCC[C@@H]1C(=O)O)C(C)C)C(C)(C)C)C(C)(C)c1ccccc1` [Example 43, N,β,β-trimethyl-L-phenylalanyl-N^1-{(1S,2E)-4-[(2R)-2-carboxypyrrolidin-1-yl]-1-isopropyl-3-methyl-4-oxobut-2-enyl}-N^1,3-dimethyl-L-valinamide], the IC50 was 515 nM in assay [1] (Homo sapiens, KB, 72 h) and 1580 nM in assay [2] (72 h). The compound further showed an inhibition at 3 µM in assay [3] (Homo sapiens) of 0%. Also, the “Tubulin Polym. % inhibition at 0.3 uM” value in assay [4] stood at 91%.

As to `CN[C@H](C(=O)N[C@H](C(=O)N(C)[C@H](/C=C(/C)S(=O)(=O)O)C(C)C)C(C)(C)C)C(C)(C)c1ccccc1` [Example 67, N,β,β-trimethyl-L-phenylalanyl-N^1-[(1S,2Z)-1-isopropyl-3-sulfobut-2-enyl]-N^1,3-dimethyl-L-valinamide], the inhibition at 3 µM in assay [1] (Homo sapiens, 72 h) was 0%; in assay [2], 0%; in assay [3] (Homo sapiens), 0%. Moreover, the “Tubulin Polym. % inhibition at 0.3 uM” value in assay [4] is 21%.

On to `CN[C@H](C(=O)N[C@H](C(=O)N(C)[C@H](/C=C(\C)C(=O)N1C[C@H](O)C[C@H]1C(=O)O)C(C)C)C(C)(C)C)C(C)(C)c1ccccc1` [Example 42, N,β,β-trimethyl-L-phenylalanyl-N^1-{(1S,2E)-4-[(2S,4R)-2-carboxy-4-hydroxypyrrolidin-1-yl]-1-isopropyl-3-methyl-4-oxobut-2-enyl}-N^1,3-dimethyl-L-valinamide], for which the IC50 in assay [1] (Homo sapiens, KB, 72 h) is 184 nM; in assay [2] (72 h) it was 1850 nM. This compound showed an inhibition at 3 µM in assay [3] (Homo sapiens) of 0%. For the same compound, in assay [4], the “Tubulin Polym. % inhibition at 0.3 uM” value came out at 96%.

In the case of `CN[C@H](C(=O)N[C@H](C(=O)N(C)[C@H](/C=C(\C)C(=O)N1CCN(Cc2ccccc2)CC1)C(C)C)C(C)(C)C)C(C)(C)c1cccc(Cl)c1` [Example 16, 3-Chloro-N,β,β-trimethyl-L-phenylalanyl-N^1-[(1S,2E)-4-(4-benzylpiperazin-1-yl)-1-isopropyl-3-methyl-4-oxobut-2-enyl]-N^1,3-dimethyl-L-valinamide], the IC50 came to 39 nM in assay [1] (Homo sapiens, KB, 72 h); 60 nM in assay [2] (72 h); 803 nM in assay [3] (Homo sapiens, KB-V1, 72 h). The “Tubulin Polym. % inhibition at 0.3 uM” value in assay [4] amounted to 62%.

Turning to `CN[C@H](C(=O)N[C@H](C(=O)N(C)[C@H](/C=C/S(=O)(=O)O)C(C)C)C(C)(C)C)C(C)(C)c1ccccc1` [Example 64, N,β,β-trimethyl-L-phenylalanyl-N^1-[(1S,2E)-1-isopropyl-3-sulfoprop-2-enyl]-N^1,3-dimethyl-L-valinamide], the inhibition at 3 µM stood at 2% in assay [1] (Homo sapiens, 72 h); 1% in assay [2]; 0% in assay [3] (Homo sapiens). Moreover, in assay [4], the “Tubulin Polym. % inhibition at 0.3 uM” value was 86%.

For the compound `CN[C@H](C(=O)N[C@H](C(=O)N(C)[C@H](/C=C/P(=O)(O)OC)C(C)C)C(C)(C)C)C(C)(C)c1ccccc1` [Example 69, N,β,β-trimethyl-L-phenylalanyl-N^1-{(1S,2E)-3-[hydroxy(methoxy)phosphoryl]-1-isopropylprop-2-enyl}-N^1,3-dimethyl-L-valinamide], the inhibition at 3 µM in assay [1] (Homo sapiens, 72 h) is 0%; in assay [2] it was 0%; in assay [3] (Homo sapiens), 3%. For the same compound, the “Tubulin Polym. % inhibition at 0.3 uM” value in assay [4] turned out to be 59%.

In the case of `CN[C@H](C(=O)N[C@H](C(=O)N(C)[C@H](/C=C(\C)C(=O)N1CCC[C@H]1[C@H](OC)[C@@H](C)C(=O)N1C(=O)O[C@@H](c2ccccc2)[C@H]1C)C(C)C)C(C)(C)C)C(C)(C)C1CCCCC1` [Example 51, 3-cyclohexyl-N-methyl-L-valyl-N^1-[(1S,2E)-1-isopropyl-4-((2S)-2-{(1R,2R)-1-meyhoxy-2-methyl-3-[(4R,5S)-4-methyl-2-oxo-5-phenyl-1,3-oxazolidin-3-yl]-3-oxopropyl}pyrrolidin-1-yl)-3-methyl-4-oxobut-2-enyl]-N^1,3-dimethyl-L-valinamide], the IC50 in assay [1] stood at 22 nM; in assay [2], 61 nM; in assay [3] it was 1770 nM. In addition, the “Tubulin Polym. % inhibition at 0.3 uM” value in assay [4] came to 82%.

`CN[C@H](C(=O)N[C@H](C(=O)N(C)[C@H](/C=C(\C)C(=O)N1CCC[C@H]1C(=O)O)C(C)C)C(C)(C)C)C(C)(C)c1cccc(C)c1` [Example 22, N,β,β,3-Tetramethyl-L-phenylalanyl-N^1-{(1S,2E)-4-[(2S)-2-carboxypyrrolidin-1-yl]-1-isopropyl-3-methyl-4-oxobut-2-enyl}-N^1,3-dimethyl-L-valinamide]: the IC50 was 70 nM in assay [1] (Homo sapiens, KB, 72 h) and 599 nM in assay [2] (72 h). Further, in assay [3] (Homo sapiens), the inhibition at 3 µM amounted to 12%. In addition, in assay [4], the “Tubulin Polym. % inhibition at 0.3 uM” value is 95%.

Regarding “N,β,β-trimethyl-L-phenylalanyl-N^1-{(1S,2E)-4-[(2S)-2-(2-phenethoxycarbonyl)pyrrolidin-1-yl]-1-isopropyl-3-methyl-4-oxobut-2-enyl}-N^1,3-dimethyl-L-valinamid [Example 37]”, the figures for the IC50 in assay [1], in assay [2] and in assay [3] were 6.4 nM, 21 nM and 1640 nM, respectively. For the same compound, the “Tubulin Polym. % inhibition at 0.3 uM” value in assay [4] stood at 86%.

For the compound `CN[C@H](C(=O)N[C@H](C(=O)N(C)[C@H](/C=C(\C)C(=O)N1CC=C[C@H]1C(=O)O)C(C)C)C(C)(C)C)C(C)(C)c1ccccc1` [Example 48, N,β,β-trimethyl-L-phenylalanyl-N^1-{(1S,2E)-4-[(2S)-2-carboxy-2,5-dihydro-1H-pyrrol-1-yl]-1-isopropyl-3-methyl-4-oxobut-2-enyl}-N^1,3-dimethyl-L-valinamide], the IC50 turned out to be 58 nM in assay [1] (Homo sapiens, KB, 72 h) and 184 nM in assay [2] (72 h). The same compound gave an inhibition at 3 µM in assay [3] (Homo sapiens) of 15%. In addition, the “Tubulin Polym. % inhibition at 0.3 uM” value in assay [4] was 91(2) %.

Regarding `CN[C@H](C(=O)N[C@H](C(=O)N(C)[C@H](/C=C(\C)C(=O)N1CCCC[C@H]1C(=O)O)C(C)C)C(C)(C)C)C(C)(C)c1ccccc1` [Example 50, N,β,β-trimethyl-L-phenylalanyl-N^1-{(1S,2E)-4-[(2S)-2-carboxypiperidin-1-yl]-1-isopropyl-3-methyl-4-oxobut-2-enyl}-N^1,3-dimethyl-L-valinamide], the IC50 in assay [1] (Homo sapiens, KB, 72 h) was 64 nM; in assay [2] (72 h), 270 nM. The compound further registered an inhibition at 3 µM in assay [3] (Homo sapiens) of 9%. In assay [4], the “Tubulin Polym. % inhibition at 0.3 uM” value was 84(2) %.

Consider `CN[C@H](C(=O)N[C@H](C(=O)N(C)[C@H](C(=O)N1CCC[C@H]1C(=O)OC)C(C)C)C(C)(C)C)C(C)(C)c1ccccc1` [Example 33, Methyl N,β,β-trimethyl-L-phenylalanyl-3-methyl-L-valyl-N-methyl-L-valyl-L-prolinate] (H-[NMePhe(β,β-Me2)][Tle][NMeV]P-OMe), for which the IC50 in assay [1] (Homo sapiens, KB, 72 h) is 18 nM; in assay [2] (72 h), 53 nM; in assay [3] (Homo sapiens, KB-V1, 72 h) it was 1530 nM. The “Tubulin Polym. % inhibition at 0.3 uM” value in assay [4] is reported as 19%.

As to `CN[C@@H](C(=O)N[C@H](C(=O)N(C)[C@H](/C=C(\C)C(=O)O)C(C)C)C(C)(C)C)C1(C)CCCc2ccccc21` (single isomer, unassigned) [Example 60], the IC50 in assay [1] (Homo sapiens, KB, 72 h) came out at 9.1 nM; in assay [2] (72 h), 17 nM; in assay [3] (Homo sapiens, KB-V1, 72 h) it was 427 nM. Besides, the “Tubulin Polym. % inhibition at 0.3 uM” value in assay [4] stood at 94%.

In the case of `C/C(=C\[C@H](C(C)C)N(C)C(=O)[C@@H](NC(=O)[C@@H](N(C)C)C(C)(C)c1ccccc1)C(C)(C)C)C(=O)N1CCN(Cc2ccccc2)CC1` [Example 15, N,β,β,β-Tetramethyl-L-phenylalanyl-N^1[(1S,2E)-4-(4-benzylpiperazin-1-yl)-1-isopropyl-3-methyl-4-oxobut-2-enyl]-N^1,3-dimethyl-L-valinamide], the half-inhibitory concentration (IC50) in assay [1] was found to be 7.2 nM; in assay [2], 18 nM; in assay [3], 354 nM. The “Tubulin Polym. % inhibition at 0.3 uM” value in assay [4] is reported as 77%.

Take `CN[C@H](C(=O)N[C@H](C(=O)N(C)[C@H](/C=C(\C)C(=O)N1CCN(C)CC1)C(C)C)C(C)(C)C)C(C)(C)c1ccc(C)c(C)c1` [Example 7, N,β,β,3,4-Pentamethyl-L-phenylalanyl-N^1-[(1S,2E)-1-isopropyl-3-methyl-4-(4-methylpiperazin-1-yl)-4-oxobut-2-enyl]-N^1,3-dimethyl-L-valinamide]: the IC50 in assay [1] (Homo sapiens, KB, 72 h) came out at 47 nM; in assay [2] (72 h), 68 nM; in assay [3] (Homo sapiens, KB-V1, 72 h), 2190 nM. The “Tubulin Polym. % inhibition at 0.3 uM” value in assay [4] amounted to 32%.
